# In EPA's ToxValDB 9.5:
# Several values for one entry are separate records, joined by “and”; a condition that tells them apart may be missing. Equal values may be shown once.
# System: Rattus norvegicus
# [1] = short-term, duration: 4 weeks, inhalation, F, Wistar, Adrenal: Adrenal Cortex, Minimal Diffuse Hypertrophy + Blood: Calcium (CA), Blood + Blood: Chloride (CL), Blood + Blood: Inorganic …
# [2] = short-term, duration: 4 weeks, inhalation, F, Wistar, Blood: Albumin/Globulin (A/G) Ratio + Blood: Globulin (G), Blood + Blood: Glucose (GLU), Blood + Blood: Potassium (K), Blood + Kidney: Urea…
# [3] = short-term, duration: 4 weeks, inhalation, M, Wistar, Adrenal: Adrenal Cortex, Minimal Diffuse Hypertrophy + Blood: Calcium (CA), Blood + Blood: Total Protein (TP), Blood + Liver: Aspartate …
# [4] = short-term, duration: 4 weeks, inhalation, M, Wistar, Blood: Chloride (CL), Blood + Blood: Glucose (GLU), Blood + Blood: Hematocrit (HCT) + Blood: Hemoglobin (HGB) + Blood: Red Blood Cell (RBC…
# [5] = short-term, duration: 28 days, oral, gavage, F, Sprague-Dawley, Blood: Hematocrit (HCT) + Blood: Hemoglobin (HGB) + Blood: Red Blood Cell (RBC) + Blood: White Blood Cell (WBC) + Kidney: Total Protein (TP…
# [6] = short-term, duration: 28 days, oral, gavage, F, Sprague-Dawley, Blood: Lymphocyte + Blood: Mean Corpuscular Volume (MCV) + Blood: Monocytes + Central Nervous System: Spontaneous Locomotion + Intestine: …
# [7] = short-term, duration: 28 days, oral, gavage, F, Sprague-Dawley, Blood: Prothrombin Time (PT) + Renal: Albumin (A), Urine
# [8] = short-term, duration: 28 days, oral, gavage, M, Sprague-Dawley, Blood: Hematocrit (HCT) + Blood: Hemoglobin (HGB) + Blood: White Blood Cell (WBC) + Central Nervous System: Spontaneous Locomotion + Hair/…
# [9] = short-term, duration: 28 days, oral, gavage, M, Sprague-Dawley, Blood: Mean Cell Hemoglobin (MCH) + Blood: Mean Corpuscular Hemoglobin Concentration (MCHC) + Blood: Mean Corpuscular Volume (MCV) + Blood: …
# [10] = short-term, duration: 28 days, oral, gavage, M, Sprague-Dawley, Hair/Fur: Alopecia + Lung: Respiration Rate
# [11] = short-term, duration: 28 days, oral, gavage, M, Sprague-Dawley, Liver: Liver Weight, Relative
# [12] = developmental, duration: 14 days, oral, gavage, M/F, Hsd. Han: WIST, generation: F1, F1: Developmental: Bone: Skeletal Variations + F1: Developmental: Placenta: Placenta Weight, Absolute + F1: Developmental: Placenta: …
# [13] = developmental, duration: 14 days, oral, gavage, M/F, Wistar Han, generation: F1, F1: Placenta: Placenta Weight, Absolute + F1: Whole Body: Body Weight, Fetal + F1: Whole Body: Fetal Skeletal Variations
# [14] = reproduction developmental, duration: 14 days, oral, gavage, F, Hsd. Han: WIST, generation: P0, P0: Developmental: Uterus: Implantation + P0: Developmental: Uterus: Post-Implantation Loss + P0: Developmental: Uterus: Pre-Implantation …
# [15] = reproduction developmental, duration: 14 days, oral, gavage, F, Wistar Han, generation: P0, P0: Kidney: Necropsy, Kidney Observation + P0: Small Intestine: Necropsy, Small Intestine Observation + P0: Stomach: Necropsy, Stomach …
# [16] = short-term, duration: 28 days, oral, gavage, F, Sprague-Dawley, Adrenal: Adrenal Gland Weight, Absolute + Adrenal: Adrenal Gland Weight, Relative
# [17] = short-term, duration: 28 days, oral, gavage, M/F, Sprague-Dawley, Liver: Liver Histopathology
# [18] = short-term, duration: 28 days, oral, gavage, M, Sprague-Dawley, Adrenal: Adrenal Gland Weight, Absolute + Adrenal: Adrenal Gland Weight, Relative
compound,measurement,setting,value
"FC(F)(I)C(F)(F)C(F)(F)C(F)(F)C(F)(F)C(F)(F)I [1,6-Diiodoperfluorohexane]",LOAEL,[1],45.1 mg/m3
same,NOAEL,[1],14.4 mg/m3
same,NOAEL,"short-term, duration: 4 weeks, inhalation, F, Wistar, Adrenal: Adrenal Gland Weight, Relative + Basophils + Blood: Activated Partial Thromboplastin Time (APTT) + Blood: Mean Corpuscular …",45.1 mg/m3
same,LOAEL,[2],14.4 mg/m3
same,NOAEL,[2],4.48 mg/m3 and 4.49 mg/m3
same,LOAEL,"short-term, duration: 4 weeks, inhalation, F, Wistar, Blood: Cholesterol (CHOL), Total, Blood + Blood: Hematocrit (HCT) + Blood: Hemoglobin (HGB) + Blood: Red Blood Cell (RBC) + Brain: Brain …",4.48 mg/m3 and 4.49 mg/m3
same,LOAEL,[3],45.1 mg/m3
same,NOAEL,[3],14.4 mg/m3
same,LOAEL,"short-term, duration: 4 weeks, inhalation, M, Wistar, Adrenal: Adrenal Gland Weight, Relative + Blood: Globulin (G), Blood + Blood: Inorganic Phosphorous (PHOS), Blood + Blood: Reticulocytes + …",4.48 mg/m3 and 4.49 mg/m3
same,NOAEL,"short-term, duration: 4 weeks, inhalation, M, Wistar, Basophils + Blood: Activated Partial Thromboplastin Time (APTT) + Blood: Albumin/Globulin (A/G) Ratio + Blood: Mean Corpuscular Hemoglobin (…",45.1 mg/m3
same,LOAEL,[4],14.4 mg/m3
same,NOAEL,[4],4.48 mg/m3 and 4.49 mg/m3
same,NOAEL,"short-term, duration: 28 days, oral, gavage, F, Sprague-Dawley, Adrenal: Adrenal Gland Histopathology + Adrenal: Adrenal Gland Weight, Relative + Blood: Globulin (G) + Blood: Phosphorous (inorganic) (PHOS…",20 mg/kg-day
same,LOAEL,"short-term, duration: 28 days, oral, gavage, F, Sprague-Dawley, Blood: Activated Partial Thromboplastin Time (APTT) + Blood: Albumin/Globulin (A/G) Ratio + Blood: Mean Cell Hemoglobin (MCH) + Blood: Mean …",1 mg/kg-day
same,LOAEL,[5],3 mg/kg-day
same,NOAEL,[5],1 mg/kg-day
same,LOAEL,[6],10 mg/kg-day
same,NOAEL,[6],3 mg/kg-day
same,LOAEL,[7],20 mg/kg-day
same,NOAEL,[7],10 mg/kg-day
same,NOAEL,"short-term, duration: 28 days, oral, gavage, M, Sprague-Dawley, Adrenal: Adrenal Gland Histopathology + Blood: Globulin (G) + Blood: Lymphocyte + Blood: Monocytes + Blood: Platelet Count (PLT) + Blood: …",20 mg/kg-day
same,LOAEL,"short-term, duration: 28 days, oral, gavage, M, Sprague-Dawley, Adrenal: Adrenal Gland Weight, Relative + Blood: Activated Partial Thromboplastin Time (APTT) + Blood: Albumin/Globulin (A/G) Ratio + Brain…",1 mg/kg-day
same,LOAEL,[8],3 mg/kg-day
same,NOAEL,[8],1 mg/kg-day
same,LOAEL,[9],10 mg/kg-day
same,NOAEL,[9],3 mg/kg-day
same,LOAEL,[10],20 mg/kg-day
same,NOAEL,[10],10 mg/kg-day
FC(F)C(F)(F)C(F)(F)C(F)(F)C(F)(F)C(F)(F)F [1H-Perfluorohexane],NOAEL,"developmental, duration: 20 days, parental, M/F, Wistar, generation: F1, F1: Thyroid: Thyroxine (T4) + F1: Trunk: Anogenital Distance + F1: Whole Body: Body Weight, Fetal + F1: Whole Body: Clinical Observations + …",1000 mg/kg-day
same,NOAEL,"reproduction developmental, duration: 20 days, parental, M, Wistar, generation: F1, F1: Trunk: Areola/Nipple Retention",1000 mg/kg-day
same,NOAEL,"reproduction developmental, duration: 29 days, oral, gavage, M, Wistar, generation: P0, P0: Epididymis: Epididymis Weight, Absolute + P0: Prostate: Prostate Weight, Absolute + P0: Seminal Vesicle: Seminal Vesicles Weight (w/o …",1000 mg/kg-day
same,NOAEL,"reproduction developmental, duration: 29 days, oral, gavage, M, Wistar, generation: P0, P0: Peripheral Nervous System: Functional Observational Battery Tests + P0: Thyroid: Thyroid Gland Weight, Absolute + P0: Thyroid: Thyroxine…",1000 mg/kg-day
same,NOAEL,"reproduction developmental, duration: 64 days, oral, gavage, F, Wistar, generation: P0, P0: Heart: Heart Gross Pathology + P0: Heart: Heart Histopathology + P0: Kidney: Kidney Gross Pathology + P0: Kidney: Kidney Histopathology…",1000 mg/kg-day
same,NOAEL,"reproduction developmental, duration: 64 days, oral, gavage, F, Wistar, generation: P0, P0: Testis: Ovary Histopathology + P0: Uterus: Estrous Cyclicity + P0: Uterus: Implantation + P0: Whole Body: Conception Index + P0: Whole …",1000 mg/kg-day
same,NOAEL,"short-term, duration: 28 days, oral, gavage, F, Sprague-Dawley, Adrenal: Adrenal Gland Histopathology + Adrenal: Adrenal Gland Weight, Relative + Blood: Hematology, Unspecified + Brain: Brain Weight, …",1000 mg/kg-day
same,NOAEL,"short-term, duration: 28 days, oral, gavage, M, Sprague-Dawley, Adrenal: Adrenal Gland Histopathology + Adrenal: Adrenal Gland Weight + Blood: Hematology, Unspecified + Brain: Brain Weight, Relative + …",1000 mg/kg-day
same,LOAEL,[11],1000 mg/kg-day
same,NOAEL,[11],200 mg/kg-day
C=C(C)C(=O)OCCC(F)(F)C(F)(F)C(F)(F)C(F)(F)C(F)(F)C(F)(F)F [2-(Perfluorohexyl)ethyl methacrylate],LOAEL,[12],1000 mg/kg-day
same,NOAEL,[12],320 mg/kg-day
same,LEL,[13],1000 mg/kg-day
same,NEL,[13],320 mg/kg-day
same,NEL,"developmental, duration: 14 days, oral, gavage, M/F, Wistar Han, generation: F1, F1: Placenta: Placenta Weight, Relative + F1: Uterus: Fetuses, Dead + F1: Uterus: Fetuses, Live + F1: Whole Body: Fetal External …",1000 mg/kg-day
same,LOAEL,[14],1000 mg/kg-day
same,NOAEL,[14],320 mg/kg-day
same,NOAEL,"reproduction developmental, duration: 14 days, oral, gavage, F, Hsd. Han: WIST, generation: P0, P0: Reproductive: Ovary: Corpora Lutea",1000 mg/kg-day
same,LEL,[15],1000 mg/kg-day
same,NEL,[15],320 mg/kg-day
same,NEL,"reproduction developmental, duration: 14 days, oral, gavage, F, Wistar Han, generation: P0, P0: Ovary: Corpora Lutea + P0: Uterus: Implantation + P0: Uterus: Post-Implantation Loss + P0: Uterus: Pre-Implantation Loss + P0: Whole …",1000 mg/kg-day
same,NEL,"short-term, duration: 28 days, oral, gavage, F, Crl:CD(SD), Adrenal: Adrenal Gland Weight, Absolute + Adrenal: Adrenal Gland Weight, Absolute, Recovery + Adrenal: Adrenal Gland Weight, Relative + …",25 mg/kg-day
same,NEL,"short-term, duration: 28 days, oral, gavage, F, Crl:CD(SD), Liver: Liver Weight, Absolute + Liver: Liver Weight, Relative + Teeth: Decreased Iron Pigment, Ameloblasts (28 d)",5 mg/kg-day
same,LEL,"short-term, duration: 28 days, oral, gavage, F, Crl:CD(SD), Liver: Liver Weight, Absolute + Liver: Liver Weight, Relative + Teeth: Decreased Iron Pigment, Ameloblasts (28 d) + Teeth: Teeth, Mottled (…",25 mg/kg-day
same,NEL,"short-term, duration: 28 days, oral, gavage, M, Crl:CD(SD), Adrenal: Adrenal Gland Weight, Absolute + Adrenal: Adrenal Gland Weight, Absolute, Recovery + Adrenal: Adrenal Gland Weight, Relative + …",25 mg/kg-day
same,NEL,"short-term, duration: 28 days, oral, gavage, M, Crl:CD(SD), Kidney: Kidney Weight, Relative + Teeth: Decreased Iron Pigment, Ameloblasts (28 d)",5 mg/kg-day
same,LEL,"short-term, duration: 28 days, oral, gavage, M, Crl:CD(SD), Kidney: Kidney Weight, Relative + Teeth: Decreased Iron Pigment, Ameloblasts (28 d) + Teeth: Teeth, Mottled (42 d)",25 mg/kg-day
CCOC(F)(C(F)(F)C(F)(F)C(F)(F)F)C(F)(C(F)(F)F)C(F)(F)F (stereo not drawn) [3-Ethoxyperfluoro(2-methylhexane)],NOAEL,"developmental, duration: 26 days, parental, M/F, Sprague-Dawley, generation: F1, F1: Whole Body: Clinical Observations + F1: Whole Body: Litter Size + F1: Whole Body: Necropsy Appeared Normal + F1: Whole Body: Pup Body …",1000 mg/kg-day
same,NOAEL,"reproduction developmental, duration: 2 weeks, oral, gavage, F, Sprague-Dawley, generation: P0, P0: Ovary: Ovary, Non-Neoplastic Lesions + P0: Uterus: Estrous Cycle + P0: Uterus: Implantation + P0: Whole Body: Clinical Observations + P0…",1000 mg/kg-day
same,NOAEL,"reproduction developmental, duration: 2 weeks, oral, gavage, M, Sprague-Dawley, generation: P0, P0: Epididymis: Epididymis Weight, Absolute + P0: Epididymis: Epididymis Weight, Relative + P0: Epididymis: Epididymis, Non-Neoplastic …",1000 mg/kg-day
same,LOAEL,[16],1000 mg/kg-day
same,NOAEL,[16],200 mg/kg-day
same,NOAEL,"short-term, duration: 28 days, oral, gavage, F, Sprague-Dawley, Ovary: Ovary Weight, Absolute + Ovary: Ovary Weight, Relative + Spleen: Spleen Weight, Absolute",1000 mg/kg-day
same,LOAEL,"short-term, duration: 28 days, oral, gavage, F, Sprague-Dawley, Spleen: Spleen Weight, Relative",40 mg/kg-day
same,NOAEL,"short-term, duration: 28 days, oral, gavage, M/F, Sprague-Dawley, Blood: Clinical Chemistry, Unspecified + Kidney: Urinalysis, Unspecified + Whole Body: Body Weight Change + Whole Body: Clinical …",1000 mg/kg-day
same,LOAEL,[17],1000 mg/kg-day
same,NOAEL,[17],200 mg/kg-day
same,LOAEL,[18],1000 mg/kg-day
same,NOAEL,[18],200 mg/kg-day
same,LOAEL,"short-term, duration: 28 days, oral, gavage, M, Sprague-Dawley, Spleen: Spleen Weight, Absolute + Spleen: Spleen Weight, Relative",40 mg/kg-day
